In patent US6713445B1, “Peptides for treatment of HIV infection” (Advanced Immuni T, Inc., priority 1998, dated 2004):
Where a SMILES comes first, the peptide text is derived from it.

Tested on: GP120-Mediated Neurotoxicity
Assay: Neuronal survival assay with 1 pM gp120 (count of neuron-specific enolase positive cells)
Type: cell-based
Details: together with 1 pM gp120 (RF isolate), primary cultures of mixed rat neurons glia; for inhibition of neuronal death caused by gp120 (in words): dose-dependent; for protection against gp120 neuronal death: peptide at 10 μM
Excerpt: Materials: A gp120 isolate RFII was obtained from Dr. P. Nara, NCI, NIH. All of the gp120's are purified, >95% homogeneous and previously tested for neurotoxicity with cultured neurons and were used at 1 pM final concentration in cultures of neurons. Peptides of the formula Ile-Lys-Glu-Tyr-Phe-Thr-Ser (SEQ. ID NO: 2), Ile-Lys-Glu-Tyr-Phe (SEQ. ID NO: 3), and Leu-Glu-Ser-Tyr-Thr (SEQ. ID NO: 1), were obtained from Peninsula Labs, CA. and synthesized by solid-phase Merrified methods and purified to greater than 95% homogeneity by two HPLC methods and structure confirmed by MASS Spectroscopy Analysis.
Neuronal cell culture: Dissociated hippocampal cultures are prepared from neonatal (day 2) rat cortex and hippocampus by known methods. Sterilely dissected brain tissue is minced and treated with 0.125% trypsin for 30 minutes then gently triturated with fire-polished Pasteur pipes and plated in six-well trays (35 mm^2) at low density (50,000 cells/35 mm^2 dish) upon confluent layers of astrocytes in medium containing D-MEM, penicillin (25 U/ml), streptomycin ([…]), D-glucose (0.6%), and 10% heat-inactivated fetal calf serum (HyClone Laboratories), supplemented with insulin, transferrin, selenium, corticosterone, and triiodothyronine. Medium is changed after 3 days. At 6 days, half the medium is exchanged for fresh medium. The astrocyte feeder layers were prepared from the cortexes of neonatal rats following dissection and trituration. Plating was 2.5×10^2 cells per well. Feeder layers were grown in Eagles's minimal essential medium (Formula No. 82-0234DJ, Gibco) with 10% fetal calf serum until confluent (7-14 days). With this medium the feeder cultures were free of neurons and consisted of flat cells that were stained by antibodies to glial fibrillary acidic protein, a standard immunocytochemical marker for astroglia. When hippocampal or cortical cells were added to the confluent feeder layer, the medium was changed to the following composition: 5% horse serum and MEM supplement with defined medium components. The hippocampal or cortical cultures were treated with 5′-fluoro-2′-deoxyuridine (15 ug/ml plus uridine, 35 ug/ml) to suppress the overgrowth of background cells and allow the establishment of neurons. The neurons in these cultures are post-mitotic. The neuronal cultures were allowed to grow for 1 week prior to the beginning of the experimental period. Before treating the cultures, a complete change of medium was given.
Neuronal survival assay: GP120's, with or without added peptides, were diluted in phosphate buffered saline and added to the cultures, which were treated only once for a four day period. At termination, cultures were fixed with glutaraldehyde as previously described. At the end of the test period, neuronal survival was assessed by immunohistochemical detection of neuron-specific enolase positive cells (neurons). Cultures were counted in a blinded fashion without knowledge of sample treatment in 40 fields at pre-determined coordinate locations. The total area counted is 50 mm^2. Each value reported is the mean±the standard error of 3-4 determinations. Control (saline treated) wells from these cultures have 395±20 neurons. Statistical comparisons between experimental and control culture neuronal cell counts are via analysis of variance with the Student-Newman-Kuels multiple comparison of means test.
The dotted line in FIG. 1 represents the mean number of neurons in control cultures.

| Compound | inhibition of neuronal death caused by gp120 (in words) | protection against gp120 neuronal death | EC50 (read-out: EC50 for preventing neuronal loss caused by gp120, four day period) [nM] |
| --- | --- | --- | --- |
| CC[C@H](C)[C@H](N)C(=O)N[C@@H](CCCCN)C(=O)N[C@@H](CCC(=O)O)C(=O)N[C@@H](Cc1ccc(O)cc1)C(=O)N[C@@H](Cc1ccccc1)C(=O)N[C@H](C(=O)N[C@@H](CO)C(=O)O)[C@@H](C)O [IKEYFTS, Ile-Lys-Glu-Tyr-Phe-Thr-Ser] (H-IKEYFTS-OH; N-terminus and C-terminus assumed) | preventing neuronal loss | fully protective | 100 |
| Leu-Glu-Ser-Tyr-Thr (LESYT; mammalian) | preventing neuronal loss | partially protective |  |
| Ile-Lys-Glu-Tyr-Phe (IKEYF; mammalian) [shorter pentapeptide used to show specificity] | inactive |  |  |
